In patent US9783527B2, “Indazole ureas and method of use” (AbbVie Inc., priority 2014, dated 2017):

Molecular target: human Nav1.7 (Homo sapiens (Human), UniProt Q15858)
Test: FRET-based membrane potential assay, recombinant human sodium channel Nav1.7
Format: cell-based
Details: HEK293 cells stably expressing recombinant human Nav1.7; depolarization with veratridine (EC80) + scorpion venom
Procedure, shortened: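 IC50 derived by four-parameter Hill fit of percent inhibition of depolarization, measured as peak F440-480/F565-625 ratio over baseline. Stable human Nav1.7 HEK293 cells, dye-loaded with CC2-DMPE and DiSBAC2(3)/VABSC-1 at room temperature, received compound 3 min ahead of veratridine (EC80) plus scorpion venom.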

Chain of human Nav1.7 (Q15858 whole entry): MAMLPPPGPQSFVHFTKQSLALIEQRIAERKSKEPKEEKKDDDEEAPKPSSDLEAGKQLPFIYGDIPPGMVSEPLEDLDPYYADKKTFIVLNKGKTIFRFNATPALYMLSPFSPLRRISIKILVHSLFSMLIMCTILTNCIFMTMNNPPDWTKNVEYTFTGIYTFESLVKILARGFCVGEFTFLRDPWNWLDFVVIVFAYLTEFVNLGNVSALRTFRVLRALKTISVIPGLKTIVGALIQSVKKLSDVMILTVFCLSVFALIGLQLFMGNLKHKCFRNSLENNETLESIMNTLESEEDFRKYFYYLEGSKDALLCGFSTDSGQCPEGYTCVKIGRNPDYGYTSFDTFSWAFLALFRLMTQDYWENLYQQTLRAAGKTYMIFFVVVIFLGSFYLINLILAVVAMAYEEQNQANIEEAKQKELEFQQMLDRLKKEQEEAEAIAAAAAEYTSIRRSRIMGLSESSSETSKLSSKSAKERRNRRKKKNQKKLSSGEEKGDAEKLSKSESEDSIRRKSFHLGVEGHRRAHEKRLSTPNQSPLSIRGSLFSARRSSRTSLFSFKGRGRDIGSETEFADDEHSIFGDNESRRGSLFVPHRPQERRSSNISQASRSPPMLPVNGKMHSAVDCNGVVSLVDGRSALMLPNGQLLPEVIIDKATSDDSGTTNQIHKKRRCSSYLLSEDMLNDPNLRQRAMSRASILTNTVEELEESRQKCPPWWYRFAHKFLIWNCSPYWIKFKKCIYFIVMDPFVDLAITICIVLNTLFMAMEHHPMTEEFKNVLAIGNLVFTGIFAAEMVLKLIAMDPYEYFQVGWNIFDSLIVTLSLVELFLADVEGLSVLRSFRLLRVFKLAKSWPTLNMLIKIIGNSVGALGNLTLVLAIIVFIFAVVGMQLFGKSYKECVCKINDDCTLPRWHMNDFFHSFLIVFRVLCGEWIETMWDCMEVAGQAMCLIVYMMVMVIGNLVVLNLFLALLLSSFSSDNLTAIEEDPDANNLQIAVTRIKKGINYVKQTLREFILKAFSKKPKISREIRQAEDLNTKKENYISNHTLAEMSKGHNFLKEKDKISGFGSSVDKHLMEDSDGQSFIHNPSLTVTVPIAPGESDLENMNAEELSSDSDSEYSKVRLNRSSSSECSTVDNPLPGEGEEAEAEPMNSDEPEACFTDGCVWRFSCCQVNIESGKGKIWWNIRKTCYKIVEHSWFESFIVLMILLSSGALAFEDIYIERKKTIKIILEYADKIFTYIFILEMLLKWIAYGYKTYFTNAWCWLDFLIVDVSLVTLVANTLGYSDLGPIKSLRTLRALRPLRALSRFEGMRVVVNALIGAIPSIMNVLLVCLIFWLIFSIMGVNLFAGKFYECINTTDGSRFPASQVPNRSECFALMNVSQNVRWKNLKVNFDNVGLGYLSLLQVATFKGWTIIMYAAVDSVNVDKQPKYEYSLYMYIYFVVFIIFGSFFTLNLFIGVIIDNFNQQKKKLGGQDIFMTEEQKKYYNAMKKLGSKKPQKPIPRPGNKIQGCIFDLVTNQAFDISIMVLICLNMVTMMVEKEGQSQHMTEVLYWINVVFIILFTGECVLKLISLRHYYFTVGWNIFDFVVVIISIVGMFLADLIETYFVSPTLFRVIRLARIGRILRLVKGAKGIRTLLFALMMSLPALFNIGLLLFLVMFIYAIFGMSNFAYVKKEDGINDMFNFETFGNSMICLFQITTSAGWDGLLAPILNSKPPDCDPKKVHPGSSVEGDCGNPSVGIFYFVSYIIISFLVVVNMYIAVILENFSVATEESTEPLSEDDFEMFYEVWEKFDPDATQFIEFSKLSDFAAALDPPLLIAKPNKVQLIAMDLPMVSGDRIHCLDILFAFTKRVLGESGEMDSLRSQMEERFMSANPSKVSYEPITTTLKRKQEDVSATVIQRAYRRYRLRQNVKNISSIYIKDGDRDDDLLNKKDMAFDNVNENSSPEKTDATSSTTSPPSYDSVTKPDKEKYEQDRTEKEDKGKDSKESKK

First: Cc1nnc(CN2CCN(c3cccc4c3cnn4-c3ccc(F)cc3F)C2=O)s1 [Example 234, 1-[1-(2,4-difluorophenyl)-1H-indazol-4-yl]-3-[(5-methyl-1,3,4-thiadiazol-2-yl)methyl]imidazolidin-2-one]
Second: Cc1nc(CN2CCN(c3cccc4c3cnn4-c3ccc(F)cc3F)C2=O)cs1 [Example 243, 1-[1-(2,4-difluorophenyl)-1H-indazol-4-yl]-3-[(2-methyl-1,3-thiazol-4-yl)methyl]imidazolidin-2-one]
The IC50 of the first is 1.8-fold higher: 2.9 µM for the first, 1.61 µM for the second. The second is the more potent here.

First: O=C1N(Cc2ncco2)CCN1c1cccc2c1cnn2-c1ccc(C(F)(F)F)cc1 [Example 235, 1-(1,3-oxazol-2-ylmethyl)-3-{1-[4-(trifluoromethyl)phenyl]-1H-indazol-4-yl}imidazolidin-2-one]
Second: O=C1N(Cc2cocn2)CCN1c1cccc2c1cnn2-c1ccc(C(F)(F)F)cc1 [Example 242, 1-(1,3-oxazol-4-ylmethyl)-3-{1-[4-(trifluoromethyl)phenyl]-1H-indazol-4-yl}imidazolidin-2-one]
The IC50 of the first is 2.9-fold lower: 1.13 µM for the first, 3.33 µM for the second. The first is the more potent here.

Compared with Cc1noc(C)c1N1CCN(c2cccc3c2cnn3-c2ccccc2F)C1=O [Example 236, 1-(3,5-dimethyl-1,2-oxazol-4-yl)-3-[1-(2-fluorophenyl)-1H-indazol-4-yl]imidazolidin-2-one], Cc1noc(C)c1CN1CCCN(c2cccc3c2cnn3-c2ccccc2F)C1=O [Example 258, 1-[(3,5-dimethyl-1,2-oxazol-4-yl)methyl]-3-[1-(2-fluorophenyl)-1H-indazol-4-yl]tetrahydropyrimidin-2(1H)-one] is 12-fold higher in IC50: 0.924 µM for the first, 11 µM for the second. The first is the more potent here.

Compared with CC(C)c1cnc(CN2CCN(c3cccc4c3cnn4-c3ccccc3F)C2=O)o1 [Example 237, 1-[1-(2-fluorophenyl)-1H-indazol-4-yl]-3-[(5-isopropyl-1,3-oxazol-2-yl)methyl]imidazolidin-2-one], CC(C)c1cc(CN2CCN(c3cccc4c3cnn4-c3ccccc3F)C2=O)no1 [Example 251, 1-[1-(2-fluorophenyl)-1H-indazol-4-yl]-3-[(5-isopropyl-1,2-oxazol-3-yl)methyl]imidazolidin-2-one] is 3.1-fold higher in IC50: 0.667 µM for the first, 2.06 µM for the second. The first is the more potent here.

Going from Cc1nc(CN2CCN(c3cccc4c3cnn4-c3ccccc3F)C2=O)oc1C [Example 238, 1-[(4,5-dimethyl-1,3-oxazol-2-yl)methyl]-3-[1-(2-fluorophenyl)-1H-indazol-4-yl]imidazolidin-2-one] to Cc1nc(CN2CCN(c3cccc4c3cnn4-c3ccccc3F)C2=O)c(C)s1 [Example 239, 1-[(2,5-dimethyl-1,3-thiazol-4-yl)methyl]-3-[1-(2-fluorophenyl)-1H-indazol-4-yl]imidazolidin-2-one], the IC50 falls from 0.586 µM to 0.352 µM (1.7-fold). The second is the more potent here.

Going from Cc1nnc(CN2CCN(c3cccc4c3cnn4-c3ccc(C(F)(F)F)cc3)C2=O)s1 [Example 240, 1-[(5-methyl-1,3,4-thiadiazol-2-yl)methyl]-3-{1-[4-(trifluoromethyl)phenyl]-1H-indazol-4-yl}imidazolidin-2-one] to Cc1cnc(CN2CCN(c3cccc4c3cnn4-c3ccccc3F)C2=O)s1 [Example 263, 1-[1-(2-fluorophenyl)-1H-indazol-4-yl]-3-[(5-methyl-1,3-thiazol-2-yl)methyl]imidazolidin-2-one], the IC50 falls from 13.4 µM to 0.494 µM (27-fold). The second is the more potent here.

Going from C[C@@H]1CN(c2cccc3c2cnn3-c2ccccc2F)C(=O)N1C(=O)OC(C)(C)C [Example 241, tert-butyl (5R)-3-[1-(2-fluorophenyl)-1H-indazol-4-yl]-5-methyl-2-oxoimidazolidine-1-carboxylate] to CC(C)(C)OC(=O)N1CC(N2CCN(c3cccc4c3cnn4-c3ccccc3F)C2=O)C1 [Example 267, tert-butyl 3-{3-[1-(2-fluorophenyl)-1H-indazol-4-yl]-2-oxoimidazolidin-1-yl}azetidine-1-carboxylate], the IC50 falls from 2.35 µM to 1.09 µM (2.2-fold).

Cc1cc(CN2CCN(c3cccc4c3cnn4-c3ccccc3F)C2=O)on1 [Example 244, 1-[1-(2-fluorophenyl)-1H-indazol-4-yl]-3-[(3-methyl-1,2-oxazol-5-yl)methyl]imidazolidin-2-one] and CC(C)c1cc(CN2CCN(c3cccc4c3cnn4-c3ccccc3F)C2=O)on1 [Example 249, 1-[1-(2-fluorophenyl)-1H-indazol-4-yl]-3-[(3-isopropyl-1,2-oxazol-5-yl)methyl]imidazolidin-2-one] are within 1.5-fold of each other in IC50: 3.08 µM for the first, 2.43 µM for the second.

First: Cc1scnc1CN1CCN(c2cccc3c2cnn3-c2ccccc2F)C1=O [Example 245, 1-[1-(2-fluorophenyl)-1H-indazol-4-yl]-3-[(5-methyl-1,3-thiazol-4-yl)methyl]imidazolidin-2-one]
Second: Cc1nocc1CN1CCN(c2cccc3c2cnn3-c2ccccc2F)C1=O [Example 264, 1-[1-(2-fluorophenyl)-1H-indazol-4-yl]-3-[(3-methyl-1,2-oxazol-4-yl)methyl]imidazolidin-2-one]
The IC50 of the first is 16-fold lower: 0.207 µM for the first, 3.35 µM for the second. The first is the more potent here.

Compared with C[C@@H]1CN(c2cccc3c2cnn3-c2ccccc2F)C(=O)N1 [Example 246, (4R)-1-[1-(2-fluorophenyl)-1H-indazol-4-yl]-4-methylimidazolidin-2-one], O=C1N(c2cccc3c2cnn3-c2ccccc2F)CCN1C1CNC1 [Example 268, 1-(azetidin-3-yl)-3-[1-(2-fluorophenyl)-1H-indazol-4-yl]imidazolidin-2-one] is 5-fold higher in IC50: 2.98 µM for the first, 15 µM for the second. The first is the more potent here.

First: C[C@@H]1CN(c2cccc3c2cnn3-c2ccccc2F)C(=O)N1Cc1ncco1 [Example 247, (4R)-1-[1-(2-fluorophenyl)-1H-indazol-4-yl]-4-methyl-3-(1,3-oxazol-2-ylmethyl)imidazolidin-2-one]
Second: O=C1N(Cc2ncco2)CCCN1c1cccc2c1cnn2-c1ccccc1F [Example 255, 1-[1-(2-fluorophenyl)-1H-indazol-4-yl]-3-(1,3-oxazol-2-ylmethyl)tetrahydropyrimidin-2(1H)-one]
The IC50 of the first is 5.6-fold lower: 0.981 µM for the first, 5.51 µM for the second. The first is the more potent here.

First: COc1nccnc1CN1CCN(c2cccc3c2cnn3-c2ccccc2F)C1=O [Example 248, 1-[1-(2-fluorophenyl)-1H-indazol-4-yl]-3-[(3-methoxypyrazin-2-yl)methyl]imidazolidin-2-one]
Second: Cc1cnc(CN2CCN(c3cccc4c3cnn4-c3ccccc3F)C2=O)cn1 [Example 257, 1-[1-(2-fluorophenyl)-1H-indazol-4-yl]-3-[(5-methylpyrazin-2-yl)methyl]imidazolidin-2-one]
The IC50 of the first is 3-fold lower: 1.04 µM for the first, 3.09 µM for the second.

CCc1nc(CN2CCN(c3cccc4c3cnn4-c3ccccc3F)C2=O)cs1 [Example 250, 1-[(2-ethyl-1,3-thiazol-4-yl)methyl]-3-[1-(2-fluorophenyl)-1H-indazol-4-yl]imidazolidin-2-one] and COCc1nc(CN2CCN(c3cccc4c3cnn4-c3ccccc3F)C2=O)cs1 [Example 254, 1-[1-(2-fluorophenyl)-1H-indazol-4-yl]-3-{[2-(methoxymethyl)-1,3-thiazol-4-yl]methyl}imidazolidin-2-one] are within 1.5-fold of each other in IC50: 1.14 µM for the first, 0.825 µM for the second.

Compared with O=C1N(Cc2cc(C3CC3)on2)CCN1c1cccc2c1cnn2-c1ccccc1F [Example 252, 1-[(5-cyclopropyl-1,2-oxazol-3-yl)methyl]-3-[1-(2-fluorophenyl)-1H-indazol-4-yl]imidazolidin-2-one], CCc1nnc(CN2CCN(c3cccc4c3cnn4-c3ccccc3F)C2=O)o1 [Example 261, 1-[(5-ethyl-1,3,4-oxadiazol-2-yl)methyl]-3-[1-(2-fluorophenyl)-1H-indazol-4-yl]imidazolidin-2-one] is 1.9-fold higher in IC50: 1.76 µM for the first, 3.41 µM for the second. The first is the more potent here.

Going from Cc1noc([C@@H](C)N2CCN(c3cccc4c3cnn4-c3ccc(F)cc3F)C2=O)n1 [Example 253, 1-[1-(2,4-difluorophenyl)-1H-indazol-4-yl]-3-[(1R)-1-(3-methyl-1,2,4-oxadiazol-5-yl)ethyl]imidazolidin-2-one] to CC(C)c1nnc(CN2CCN(c3cccc4c3cnn4-c3ccccc3F)C2=O)o1 [Example 256, 1-[1-(2-fluorophenyl)-1H-indazol-4-yl]-3-[(5-isopropyl-1,3,4-oxadiazol-2-yl)methyl]imidazolidin-2-one], the IC50 rises from 0.932 µM to 3.12 µM (3.3-fold).

Compared with Cc1cncc(CN2CCCN(c3cccc4c3cnn4-c3ccccc3F)C2=O)n1 [Example 259, 1-[1-(2-fluorophenyl)-1H-indazol-4-yl]-3-[(6-methylpyrazin-2-yl)methyl]tetrahydropyrimidin-2(1H)-one], Cc1nnc(CN2CCCN(c3cccc4c3cnn4-c3ccccc3F)C2=O)o1 [Example 260, 1-[1-(2-fluorophenyl)-1H-indazol-4-yl]-3-[(5-methyl-1,3,4-oxadiazol-2-yl)methyl]tetrahydropyrimidin-2(1H)-one] is 6-fold higher in IC50: 3.36 µM for the first, 20 µM for the second.

CC(C)(C)c1nnc(CN2CCN(c3cccc4c3cnn4-c3ccccc3F)C2=O)o1 [Example 262, 1-[(5-tert-butyl-1,3,4-oxadiazol-2-yl)methyl]-3-[1-(2-fluorophenyl)-1H-indazol-4-yl]imidazolidin-2-one] and O=C1CCC(N2CCN(c3cccc4c3cnn4-c3ccccc3F)C2=O)CC1 [Example 266, 1-[1-(2-fluorophenyl)-1H-indazol-4-yl]-3-(4-oxocyclohexyl)imidazolidin-2-one] are within 1.5-fold of each other in IC50: 2.52 µM for the first, 3.02 µM for the second.

O=C1N(c2cccc3c2cnn3-c2ccccc2F)CCN1[C@H]1CC[C@H](O)CC1 [Example 265, 1-[1-(2-fluorophenyl)-1H-indazol-4-yl]-3-(trans-4-hydroxycyclohexyl)imidazolidin-2-one] and O=C1N(c2cccc3c2cnn3-c2ccccc2F)CCN1C1CN(C(=O)C2(O)CC2)C1 [Example 269, 1-[1-(2-fluorophenyl)-1H-indazol-4-yl]-3-{1-[(1-hydroxycyclopropyl)carbonyl]azetidin-3-yl}imidazolidin-2-one] are within 1.5-fold of each other in IC50: 8.15 µM for the first, 5.79 µM for the second.

In the case of NC(=O)C(=O)N1CC(N2CCN(c3cccc4c3cnn4-c3ccccc3F)C2=O)C1 [Example 270, 2-(3-{3-[1-(2-fluorophenyl)-1H-indazol-4-yl]-2-oxoimidazolidin-1-yl}azetidin-1-yl)-2-oxoacetamide], the IC50 is reported as 5.87 µM.
